# How the values were obtained:
# [1] = target: T1, KRAS G12C (SEQ ID NO:1 or SEQ ID NO:2) (Homo sapiens, UniProt P01116, G12C); assay: Intact mass analysis (LC-MS) of covalent modification, KRAS G12C; format: binding; design: key to KRAS G12C Modification: b: KRAS G12C modified; conditions: for KRAS G12C Modification: intact mass spectrometry, covalent modification of KRAS G12C FL
# T1 construct: purchased
# Experimental: (§1) The covalent modification of the proteins with the compounds were evaluated using intact mass analysis by liquid chromatography-mass spectrometry instrument (LC-MS/MS).
# (§2) The reaction solution (20 μL) was prepared in 96-well plate and contained the protein (2 μM), the compound (100 μM), HEPES buffer (20 mM, pH 8), 2% DMSO, 2% glycerol, and 150 mM NaCl. The reaction was allowed to proceed for 24 h at 25° C. The reaction solution (1 μL) was injected into the LC/MS/MS without any further sample preparation.
# (§3) The LC-MS/MS instrument comprises of a Waters G2-XS quadrupole-time of flight (QTof) mass spectrometer and a Waters Acuity I-class Ultra-High Performance Liquid Chromatography (UPLC) system. The I-class UPLC system includes a binary solvent manager (BSM), and an Acquity sample manager (SM). The mobile phase consisted of: A) 0.1% (v/v) formic acid in MilliQ water; B) 0.1% (v/v) formic acid acetonitrile. Gradients were run over 5 min and proceeded as follows: A:B, 85:15, 0.0-0.7 min, 85:15→15:85, 0.7-1.5 min, 10:90, 1.5-4 min, 10:90→85:15, 4-4.5 min, 85:15, 4.5-5 min. The analytical column was a Waters BEH C4 column 1.7 μm (50×1 mm) column with pore sizes of 300 Å. The TOF MS data was collected in positive ion mode (m/z of 400-2000 Da) using MassLynx software (Waters).
# (§4) The spectral deconvolution was performed using UNIFI software (Waters). The added mass of the protein upon covalent modification to cysteine residues were specified. Multiple modification of up to 8 cysteine was allowed. All the adducts with signal intensities of <2% of the base peak were ignored. The % modification was calculated as the adduct signal intensity over the total intensities of the protein peaks and the adducts.
# [2] = system: phospho-ERK1/2 in MIA PaCa-2 cells (express KRAS G12C); assay: ERK1/2 phosphorylation in MIA PaCa-2 cells; format: cell-based, human; design: key: X: KRAS G12C bound and modulated in cells
# Experimental: MIA PaCa-2 cells were cultured in Dulbecco's Modified Eagle's Medium (Wisent) supplemented with 10% FBS, 2.5% horse serum, and 1% penicillin/streptomycin. Cells were seeded in 6-well plates at 500,000 cells/well and incubated at 37° C., 5% CO2 for 16 hours. Cells were treated with the indicated concentrations of compound or DMSO alone and incubated at 37° C., 5% CO2 for 6 or 24 hours. Conditioned media was discarded, and adherent cells were washed with PBS before they were scraped. Cell suspensions were centrifugated at 2,000 RPM for 5 minutes at 4° C. and supernatants were discarded. Cell pellets were resuspended with 1×RIPA buffer (Millipore) and incubated on ice for 15 minutes. Protein lysates were extracted by centrifugating at 20,000 RPM for 20 minutes at 4° C. Proteins were separated and total KRas protein levels were quantified by Simple Western Immunoassay (ProteinSimple) using the 2-40 kDa Separation Module for Jess according to the manufacturer's protocol, using a protein concentration of 0.5 μg/μl and antibodies targeting KRas (clone #4F3, Sigma) and GAPDH (clone #14C10, Cell Signaling) diluted to 1:10 and 1:1600, respectively, where the latter was used as a loading control. A 3:1 ratio of rabbit to mouse HRP-conjugated secondary antibodies was used for detection. KRas protein levels were quantified relative to GAPDH loading levels and subsequently normalized to the DMSO control. Phosphorylated ERK1/2 levels were quantified by Simple Western Immunoassay (ProteinSimple) using the Protein Normalization Assay Module for Jess according to the manufacturer's protocol using a protein concentration of 0.5 μg/μl and an antibody targeting phosphor-ERK1/2 (clone #D13.14.4E, Cell Signalling) diluted to 1:10. Phosphorylated ERK1/2 levels were normalized to the Jess Protein Normalization Reagent loading control and subsequently to the DMSO control.
# MIA PaCa-2 cells were cultured in Dulbecco's Modified Eagle's Medium (Wisent) supplemented with 10% FBS, 2.5% horse serum, and 1% penicillin/streptomycin. Cells were seeded in 96-well plates at a density of 25,000 cells/well and incubated at 37° C., 5% CO2 for 24 hours. The next day, cells were starved in cell culture media containing 1% FBS only at 37° C., 5% CO2 for 16 hours. Following starvation, serially-diluted compounds or DMSO alone were added to cells and incubated at 37° C., 5% CO2 for 1 or 3 hours. Prior to cell lysis, 25 ng/ml human epidermal growth factor (hEGF) (Sigma) was added to the cells and incubated at 37° C., 5% CO2 for 10 minutes. Conditioned media was discarded, and adherent cells lysed and basal ERK1/2 phosphorylation levels were measured using the Phospho-ERK (Thr202/Tyr204) Cellular HTRF kit (Perkin Elmer) according to the manufacturer's protocol. The fluorescent signal of the acceptor antibody at a wavelength of 665 nm was normalized to that of the donor antibody at 620 nm. HTRF ratios were plotted and relative IC50 values were obtained using Prism (GraphPad).
# KRAS G12C = KRAS G12C (Homo sapiens, UniProt P01116, G12C); assay: SOS1-catalyzed KRAS coupled nucleotide exchange assay (Alpha technology); format: biochemical; design: His; key: A: KRAS G12C bound and modulated; conditions: inhibition of SOS1 mediated KRAS nucleotide exchange
# Experimental: Method I: The inhibition of the SOS1-catalyzed nucleotide exchange activity of KRAS (e.g., KRAS G12C/C118A) was measured using Alpha (Amplified Luminescent Proximity Homogeneous Assay) technology. 20 nM GDP-bound human KRAS (G12C/C118A) protein was incubated with two-fold serially-diluted test compound or DMSO for 5 minutes at ambient temperature in reaction buffer (25 mM HEPES, pH 7.4; 10 mM MgCl2; 0.01% Triton X-100). For all subsequent steps, DTT was added to the reaction buffer at a final concentration of 1 mM. Next, GTP and SOS-1 were added in DTT-reaction buffer at final concentrations of 1.25 mM or 500 nM, respectively, and incubated at RT for 30 minutes. Finally, c-RAF RBD (50 nM final), Alpha glutathione donor beads (PerkinElmer; 20 μg/mL final), and AlphaLISAnickel chelate acceptor beads (PerkinElmer; 20 μg/mL final), all diluted in DTT-reaction buffer, were added. The reaction mixture was incubated at RT for 5 min, and then the plates were read on an EnVision® Multilabel Reader using the AlphaScreen protocol. Luminescence signal was measured at 570 nm following a 180 ms excitation at 680 nm. Signal intensity corresponded with the association of c-RAF RBD with GTP-bound KRAS G12C/C118A and was normalized to DMSO control.
# Method II: Inhibition of the SOS1-catalyzed nucleotide exchange activity of KRAS^G12C was measured using Alpha technology (PerkinElmer). 50 nM GDP-bound human KRAS^G12C protein was incubated with serially-diluted compound or DMSO for 2 hrs at RT in RBD-RAS binding buffer (BPSBioscience). 1 mM GTP and 500 nM SOS-1 were added to the reaction mixture and incubated at RT for 30 min. GST-tagged RBD-cRAF was then added to the reaction mixture at a final concentration of 2.5 nM and incubated at RT for 30 min. Finally, Alpha Glutathione acceptor beads and Nickel chelate donor beads (PerkinElmer) were diluted to 1:500 and 1:250, respectively, and added to the reaction mixture. The final reaction was incubated at RT for 30 min. Plates were read on a TECAN SPARK® Multiplate Reader. The luminescence signal was measured at 615 nm following excitation at 680 nm. Signal intensity was normalized to DMSO control.
# [3] = target: KRAS G12C Lite (SEQ ID NO:3) (Homo sapiens, UniProt P01116, C118S/C51S/C80S/G12C/S136P/S39C); assay: Intact mass analysis (LC-MS) of covalent modification, KRAS G12C Lite; format: binding; design: key to KRAS Lite Modification: a: KRAS Lite modified; conditions: for KRAS Lite Modification: intact mass spectrometry, covalent modification of KRAS G12C Lite
# Experimental: as §1, §2, §3, §4
# [4] = modification by one molecule of compound
SMILES,KRAS G12C Modification [1],KRAS-SOS1 Nucleotide Exchange (KRAS G12C),KRAS Lite Modification [3],"covalent adduct mass, His-tagged KRAS G12C [1, 4]","covalent adduct mass, His-tagged KRAS G12C Lite [3, 4]","pERK - MIA PaCa-2 - (6 hours, 5 uM) [2]"
"Cc1ccnc(C(C)C)c1-n1c(=O)nc(NS(=O)(=O)c2c(F)c(F)c(F)c(F)c2F)c2cc(F)c(-c3c(O)cccc3F)nc21 [Compound 3A, 2,3,4,5,6-pentafluoro-N-(6-fluoro-7-(2-fluoro-6-hydroxyphenyl)-1-(2-isopropyl-4-methylpyridin-3-yl)-2-oxo-1,2-dihydropyrido[2,3-d]pyrimidin-4-yl)benzenesulfonamide]",b,A,a,,,X
"Cc1ccnc(C(C)C)c1-n1c(=O)nc(N2CCN(S(=O)(=O)c3c(F)c(F)c(F)c(F)c3F)C[C@@H]2C)c2cc(F)c(-c3c(O)cccc3F)nc21 [Compound 1A, 6-fluoro-7-(2-fluoro-6-hydroxyphenyl)-1-(2-isopropyl-4-methylpyridin-3-yl)-4-((S)-2-methyl-4-((perfluorophenyl)sulfonyl)piperazin-1-yl)pyrido[2,3-d]pyrimidin-2(1H)-one]",b,A,a,"22,070 Da","22,179 Da",X
"Cc1ccnc(C(C)C)c1-n1c(=O)nc(N2CCN(S(=O)(=O)c3c(F)c(F)c(F)c(F)c3OC(F)F)C[C@@H]2C)c2cc(F)c(-c3c(O)cccc3F)nc21 [Compound 16A, 4-((S)-4-((2-(difluoromethoxy)-3,4,5,6-tetrafluorophenyl)sulfonyl)-2-methylpiperazin-1-yl)-6-fluoro-7-(2-fluoro-6-hydroxyphenyl)-1-(2-isopropyl-4-methylpyridin-3-yl) pyrido[2,3-d]pyrimidin-2(1H)-one]",b,A,a,,,
"COc1c(F)c(F)c(F)c(F)c1S(=O)(=O)N1CCN(c2nc(=O)n(-c3c(C)ccnc3C(C)C)c3nc(-c4c(O)cccc4F)c(F)cc23)[C@@H](C)C1 [Compound 5A, 6-fluoro-7-(2-fluoro-6-hydroxyphenyl)-1-(2-isopropyl-4-methylpyridin-3-yl)-4-((S)-2-methyl-4-((2,3,4,5-tetrafluoro-6-methoxyphenyl)sulfonyl)piperazin-1-yl)pyrido[2,3-d]pyrimidin-2(1H)-one]",b,A,,,,X
"Cc1ccnc(C(C)C)c1-n1c(=O)nc(N2CCN(S(=O)(=O)c3c(F)c(F)c(F)c(F)c3F)C[C@@H]2C)c2cc(F)c(Cl)nc21 [Compound 2A, 7-chloro-6-fluoro-1-(2-isopropyl-4-methylpyridin-3-yl)-4-((S)-2-methyl-4-((perfluorophenyl)sulfonyl)piperazin-1-yl)pyrido[2,3-d]pyrimidin-2(1H)-one]",b,A,a,,,

# The next lines start with results.
KRAS G12C Modification [1],KRAS-SOS1 Nucleotide Exchange (KRAS G12C),KRAS Lite Modification [3],"covalent adduct mass, His-tagged KRAS G12C [1, 4]","covalent adduct mass, His-tagged KRAS G12C Lite [3, 4]",SMILES,"pERK - MIA PaCa-2 - (6 hours, 5 uM) [2]"
b,,,,,"O=C(COc1ccc(Cl)cc1Cl)N1CCN(S(=O)(=O)c2c(F)c(F)c(F)c(F)c2C(F)(F)F)CC1 [Compound 51A, 2-(2,4-dichlorophenoxy)-1-(4-((2,3,4,5-tetrafluoro-6-(trifluoromethyl)phenyl)sulfonyl)piperazin-1-yl)ethan-1-one]",
b,A,a,,,"Cc1ccnc(C(C)C)c1-n1c(=O)nc(N2CCN(S(=O)(=O)c3c(F)c(F)c(F)c(F)c3OC(F)F)C[C@@H]2C)c2cc(F)c(-c3c(O)cccc3F)nc21 (single isomer, unassigned) [Compound 17A]",X
b,,a,,,"Cc1cccc(C)c1-c1ccc2cc(CNS(=O)(=O)c3c(F)c(F)c(F)c(F)c3F)cnc2c1 [Compound 19A, N-[[7-(2,6-dimethylphenyl)-3-quinolyl]methyl]-2,3,4,5,6-pentafluoro-benzenesulfonamide]",X
b,,,,,"O=C(COc1ccc(Cl)cc1Cl)NC1CN(S(=O)(=O)c2c(F)c(F)c(F)c(F)c2F)C1 [Compound 50A, 2-(2,4-dichlorophenoxy)-N-(1-((perfluorophenyl)sulfonyl)azetidin-3-yl)acetamide]",
